Measured values reported in patent US20050004211A1, “Pharmaceutical compositions comprising aryl-substituted acyclic enediyne compounds” (KAOHSIUNG MEDICAL UNIVERSITY, priority 2003, published 2005).
pIC50: −log10 of the molar value. In brackets after ≈: the same amount, converted by molar mass. Like-named read-outs stand apart in the source and are kept apart here.

Experiments:
[1] = system: KB; conditions: read-out: Cytotoxicities (IC50), KB; KB cell; earlier research work; cited from earlier work
[2] = system: Hep2,2,15; conditions: read-out: Cytotoxicities (IC50), Hep2,2,15, earlier research work; cited from earlier work
[3] = system: Hela: human cervix epitheloid carcinoma; assay: In vitro anticancer assay (cytotoxicity), human solid tumor cells; conditions: for IC50: Homo sapiens, HeLa, read-out: IC50 Values of Cytotoxicities, Hela
[4] = system: DLD (DLD-1): human colon adenocarcinoma; assay: as above; conditions: for IC50: Homo sapiens, DLD-1, read-out: IC50 Values of Cytotoxicities, DLD
[5] = system: NCI (NCI-H661): human lung large cell carcinoma; assay: as above; conditions: for IC50 Values of Cytotoxicities, NCI: NCI (NCI-H661); for IC50: Homo sapiens, NCI-H661, read-out: IC50 Values of Cytotoxicities, NCI
[6] = system: Hepa: human hepatoma; assay: as above; conditions: for IC50: Homo sapiens, HepA, read-out: IC50 Values of Cytotoxicities, Hepa
[7] = system: human hepatoma Hep G2 cells; assay: Cell cycle analysis by flow cytometry; format: cell-based; conditions: 72 hrs
Protocol: Samples of 1×10^6 Hep G2 cells were plated on a 6 cm tissue culture dish, and the cells were allowed to recover 24 hrs before any treatment. Thereafter, DMSO or a test compound (1 μM, 10 μM or 50 μM) was added to the cells for 1 hr in complete medium at 37° C., washed twice with PBS, and incubated in fresh media for the incubation time. Cell were harvested with trypsin and washed twice with PBS. Samples were fixed in 70% ethanol and stored at 4° C. for at least 24 hrs and then washed once with Mcllvaine's buffer (0.2M Na2HPO4, 0.1M citric acid, pH=7.5) and once again with PBS. Samples were stained with PI (propidium iodide) staining solution (PBS containing 100 μg/ml, RNase A and 10 μg/ml PI [Sigma]), processed on a Coulter Elite flow cytometry, and the data analyzed with the Mutiplus AV program.
To obtain more information about the effect(s) of the acyclic enediynes according to this invention upon the growth of cells, human hepatoma Hep G2 cells or K-562 cells were used, and the growth characteristic of said cells were measured subsequent to the treatment with a test compound.
1 μM or 10 μM of compound 5 was added to the cells, and after exposure to the compounds for 72 hrs, attached cells were analyzed by flow cytometry. The majority (71.5%) of control cells exposed to DMSO were in the G0-G1 phase of cell cycle, and only a small amount of cells was detected in either the S phase (22.7%) or G2/M (5.8%) phase. Moreover, after a 72 hrs treatment with compound 5 (1 and 10 μM), cells progressed to the S phase and the majority of cell population was almost arrested at the S phase. Consistent with this cell cycle arrest, only 36.6% (1 μM) and 46.9% (10 μM) of the cells were found at the G0-G1 phase, 63.2% (1 μM) and 53.0% (10 μM) in S phase, and 0.2% (1 μM) and 0.1% (10 μM) in G2/M phase. However, the significant blockage of the Hep G2 cell cycle in S phase was observed and was induced by both concentrations (1 μM and 10 μM) of compound 5.

[8] = system: Hela: human cervix epitheloid carcinoma
[9] = system: Hepa: human hepatoma
[10] = system: KB: human oral epidermoid carcinoma; assay: In vitro anticancer assay (cytotoxicity), human solid tumor cells
[11] = molecular target: T1, topoisomerase I (Homo sapiens, UniProt P11387); assay: Topoisomerase I course assay, cleavage of supercoiled pGEM9zf(−) DNA, gel electrophoresis; format: biochemical; conditions: 87 μM compound
T1 sequence (P11387 1-765): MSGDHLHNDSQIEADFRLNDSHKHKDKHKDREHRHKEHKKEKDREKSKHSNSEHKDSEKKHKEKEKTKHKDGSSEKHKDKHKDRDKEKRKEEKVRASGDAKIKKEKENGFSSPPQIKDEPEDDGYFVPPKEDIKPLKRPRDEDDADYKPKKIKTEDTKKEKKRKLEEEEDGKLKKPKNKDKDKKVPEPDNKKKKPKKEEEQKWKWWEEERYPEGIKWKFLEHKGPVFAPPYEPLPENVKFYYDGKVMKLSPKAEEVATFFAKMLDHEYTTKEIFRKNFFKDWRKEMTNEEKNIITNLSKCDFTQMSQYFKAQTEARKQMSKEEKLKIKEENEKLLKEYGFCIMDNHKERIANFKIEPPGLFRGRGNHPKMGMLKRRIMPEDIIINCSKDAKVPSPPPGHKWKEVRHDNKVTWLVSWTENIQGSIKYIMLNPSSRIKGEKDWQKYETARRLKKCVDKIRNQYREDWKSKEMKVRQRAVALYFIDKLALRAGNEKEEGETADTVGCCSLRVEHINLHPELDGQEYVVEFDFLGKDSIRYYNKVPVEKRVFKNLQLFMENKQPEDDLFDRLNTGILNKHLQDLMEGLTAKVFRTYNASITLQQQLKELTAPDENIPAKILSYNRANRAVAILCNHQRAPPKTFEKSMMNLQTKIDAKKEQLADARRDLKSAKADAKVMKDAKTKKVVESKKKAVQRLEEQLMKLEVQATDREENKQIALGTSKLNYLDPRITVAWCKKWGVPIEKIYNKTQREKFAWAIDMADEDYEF

Compound | pIC50 [1] | pIC50 [2] | IC50 Values of Cytotoxicities, DLD [4] | IC50 Values of Cytotoxicities, NCI [5] | IC50 [3] [µg/mL] | IC50 [4] [µg/mL] | IC50 [5] [µg/mL] | IC50 [6] [µg/mL] | also measured
N#Cc1ccccc1C#C/C=C\C#CCOC1CCCCO1 (stereo not shown) [Compound 1, 2-(7-(Tetrahydropyranyloxy)-3(Z)-hepten-1,5-diynyl)-benzonitrile] | 7.00 | < 5.00 | 8.61 µg/mL | —* (“—” means IC50 >20 μg/ml) | – | – | – | – | IC50 Values of Cytotoxicities, Hela [3]: 9.97 µg/mL; IC50 Values of Cytotoxicities, Hepa [6]: 14.26 µg/mL
N#Cc1ccccc1C#C/C=C\C#CCCCOC1CCCCO1 (stereo not shown) [Compound 2, 2-(9-(Tetrahydropyranyloxy)-3(Z)-nonen-1,5-diynyl)-benzonitrile] | > 8.00 | < 5.00 | — (“—” means IC50 >20 μg/ml) | — (“—” means IC50 >20 μg/ml) | – | – | – | – | IC50 Values of Cytotoxicities, Hela [3]: 10.62 µg/mL; IC50 Values of Cytotoxicities, Hepa [6]: 14.66 µg/mL
CCCCC#C/C=C\C#Cc1ccccc1C#N [Compound 3, 2-(3(Z)-Decen-1,5-diynyl)benzonitrile] | > 8.00 | 4.77 | – | – | > 20 | 5.03 (≈ 21.6 µM) | > 20 | 12.5 (≈ 53.5 µM) | –
CCCCCC#C/C=C\C#Cc1ccccc1C#N [Compound 4, 2-(3(Z)-Undecen-1,5-diynyl)benzonitrile] | > 8.00 | < 5.00 | – | – | 6.38 (≈ 25.8 µM) | > 20 | > 20 | 7.28 (≈ 29.4 µM) | –
N#Cc1ccccc1C#C/C=C\C#Cc1ccccc1 [Compound 5, 2-(6-phenyl-3(Z)-hexen-1,5-diynyl)benzonitrile] | – | – | – | – | > 20 | > 20 | 7.01 (≈ 27.7 µM) | 1.09 (≈ 4.3 µM) | cells at the G0-G1 phase ([7]; 1 μM): 36.6%; cells in G2/M phase ([7]; 1 μM): 0.2%; cells in S phase ([7]; 1 μM): 63.2%; cells at the G0-G1 phase ([7]; 10 μM): 46.9%; cells in G2/M phase ([7]; 10 μM): 0.1%; cells in S phase ([7]; 10 μM): 53.0%
CCCCC#C/C=C\C#Cc1ccc(Cl)cc1 [Compound 13] | – | – | – | 8.00 µg/mL | – | – | – | – | IC50 Values of Cytotoxicities, Hela [8]: 9.83 µg/mL; IC50 Values of Cytotoxicities, Hepa [9]: — (key: “—” means IC50 >20 μg/ml); IC50 Values of Cytotoxicities, KB [10]: — (“—” means IC50 >20 μg/ml)
CCCCCCC#C/C=C\C#Cc1ccc(C(C)=O)cc1 [Compound 23, 4-(3-(Z)-Dodecen-1,5-diynyl)acetophenone] | – | – | — (“—” means IC50 >20 μg/ml) | 13.13 µg/mL | – | – | – | – | inhibition of topo I [11]: displayed inhibitory activities of topo I; IC50 Values of Cytotoxicities, Hela [8]: — (key: “—” means IC50 >20 μg/ml); IC50 Values of Cytotoxicities, Hepa [9]: — (key: “—” means IC50 >20 μg/ml)
